Several values for one entry are separate records, joined by “and”; a condition that tells them apart may be missing. Equal entries are not always repeated. Structures can show the parent of a compound that is named as a salt. Where two headings read alike, the source gives them in different places.
How the values were obtained:
AF647‐labeled hCD1d [1] = molecular target: T1, AF647‐labeled hCD1d (Homo sapiens, UniProt P15813+P61769); test: Microscale thermophoresis (MST) binding assay
T1 construct: TEV protease cleavage site ENLYFQS (C); BirA biotinylation site (C); His7 (C); made in house; host or cells: TurboCHO cells (GenScript)
T1 sequence (P61769+P15813 fused): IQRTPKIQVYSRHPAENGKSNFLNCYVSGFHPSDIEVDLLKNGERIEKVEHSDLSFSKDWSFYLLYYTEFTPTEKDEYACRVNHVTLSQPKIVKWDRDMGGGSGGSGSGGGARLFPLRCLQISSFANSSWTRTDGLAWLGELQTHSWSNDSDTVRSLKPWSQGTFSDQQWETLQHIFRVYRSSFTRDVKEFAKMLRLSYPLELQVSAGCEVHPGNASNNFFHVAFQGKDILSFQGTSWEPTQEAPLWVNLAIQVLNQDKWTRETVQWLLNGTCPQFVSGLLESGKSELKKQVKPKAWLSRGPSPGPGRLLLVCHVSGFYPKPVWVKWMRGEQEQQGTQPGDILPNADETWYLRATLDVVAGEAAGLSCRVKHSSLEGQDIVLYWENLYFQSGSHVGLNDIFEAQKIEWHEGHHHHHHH
Method in brief: (§1)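 hCD1d was NHS-labeled with AF647 (~75% labeling) and held at 100 nM against rising detergent or 18:1 LPC in PBS pH 7.4. Samples were preincubated at 37°C overnight (~12 h) and read at 25°C with 20 s IR-on time. Data are mean ± SD, n = 3.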

AF647‐labeled hCD1d [2] = molecular target: T2, AF647‐labeled hCD1d (Homo sapiens, UniProt P15813); test: Microscale thermophoresis (MST) binding assay
T2 construct: TEV protease cleavage site ENLYFQS (C); BirA biotinylation site (C); His7 (C); made in house; host or cells: TurboCHO cells (GenScript)
T2 sequence (P15813 whole entry, looked up): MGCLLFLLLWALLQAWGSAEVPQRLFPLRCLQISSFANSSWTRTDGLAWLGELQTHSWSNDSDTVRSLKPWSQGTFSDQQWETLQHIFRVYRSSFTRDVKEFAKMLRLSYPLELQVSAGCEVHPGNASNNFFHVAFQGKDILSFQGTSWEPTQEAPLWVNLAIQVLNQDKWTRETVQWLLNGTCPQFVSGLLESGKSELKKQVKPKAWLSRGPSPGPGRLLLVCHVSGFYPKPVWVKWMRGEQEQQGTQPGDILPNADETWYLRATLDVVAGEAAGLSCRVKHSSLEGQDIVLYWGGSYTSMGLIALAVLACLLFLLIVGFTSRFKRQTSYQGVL
Method in brief: as §1

[3] = molecular target: T3, recombinant human CD1d ectodomain/β2m complex (hCD1d) (Homo sapiens, UniProt P15813+P61769); test: Intrinsic tryptophan fluorescence (ITF) binding assay
T3 construct: TEV protease cleavage site ENLYFQS (C); BirA biotinylation site (C); His7 (C); made in house; host or cells: TurboCHO cells (GenScript)
T3 sequence (P61769+P15813 fused): as the sequence (P61769+P15813 fused) above
Procedure: (§2) For ITF assays, the concentration of hCD1d was kept constant, and intrinsic Trp fluorescence (excitation at 285 nm, emission at 335 nm) was measured as a function of increasing detergent concentration (Fossum et al., [2023]) (Figure S2). The change in relative fluorescence intensity (F − F 0/F 0) provides an indication of binding. […] This was due to limited detergent solubility and decreased hCD1d stability in the presence of a large excess of detergent (see below). […] SDS was the exception, for which Trp fluorescence of hCD1d decreased with added detergent. This could indicate a unique conformational change or destabilization of the protein.
(§3) ITF spectra were recorded from 300 to 500 nm using a Horiba FL3‐21 Fluorometer with the excitation wavelength of 285 nm and excitation/emission slits of 6.2 nm. Fluorescence spectra of 50 to 100 nM hCD1d were acquired in the absence and presence of detergents in 1X PBS pH 7.4 at 25°C. Prior to data acquisition, hCD1d and detergent or lipid samples were incubated at 37°C overnight (~12 h) to simulate in vitro and in vivo loading conditions. […] For 18:1 LPC experiments, fluorescence spectra of 100 nM hCD1d were acquired in the absence and presence of 18:1 LPC in 1X PBS pH 7.4 at 25°C. […] For all ITF experiments, the change in fluorescence signal (F − F 0/F 0) was determined at 335 nm. Three replicates were performed, and data are presented as the mean ± standard deviation (n = 3). K D values were fitted with non‐linear regression in GraphPad Prism v10.1.

[4] = molecular target: T4, recombinant human CD1d ectodomain/β2m complex (hCD1d) (Homo sapiens, UniProt P15813); test: as above
T4 construct: TEV protease cleavage site ENLYFQS (C); BirA biotinylation site (C); His7 (C); made in house; host or cells: TurboCHO cells (GenScript)
T4 sequence (P15813 whole entry, looked up, the tested form may be a part, one chain of several): as the sequence (P15813 whole entry, looked up) above
Procedure: as §2, §3

[5] = approximate, ref Anatrace catalogue, cited from earlier work
[6] = 0.001 M detergent, 100 nM AF647‐hCD1d
[7] = 0.001 M detergent, 100 nM hCD1d
[8] = K D (MST), detergent with 100 nM AF647‐labeled hCD1d, 25°C, apparent
[9] = ITF - Kd (uM) average, Figure 5A, detergent binding to hCD1d

| SMILES | Fnorm (rep 1-3) (AF647‐labeled hCD1d [1]; 3.05176e-8 M detergent) | Fnorm (rep 1-3) (AF647‐labeled hCD1d [1]; 6.10352e-8 M detergent) | Fnorm (rep 1-3) (AF647‐labeled hCD1d [1]; 1.2207e-7 M detergent) | Fnorm (rep 1-3) (AF647‐labeled hCD1d [1]; 2.44141e-7 M detergent) | Fnorm (rep 1-3) (AF647‐labeled hCD1d [1]; 4.88281e-7 M detergent) | Fnorm (rep 1-3) (AF647‐labeled hCD1d [1]; 9.76563e-7 M detergent) | Fnorm (rep 1-3) (AF647‐labeled hCD1d [1]; 1.95313e-6 M detergent) | Fnorm (rep 1-3) (AF647‐labeled hCD1d [1]; 3.90625e-6 M detergent) | Fnorm (rep 1-3) (AF647‐labeled hCD1d [1]; 7.8125e-6 M detergent) | Fnorm (rep 1-3) (AF647‐labeled hCD1d [1]; 1.5625e-5 M detergent) | Fnorm (rep 1-3) (AF647‐labeled hCD1d [1]; 3.125e-5 M detergent) | Fnorm (rep 1-3) (AF647‐labeled hCD1d [1]; 6.25e-5 M detergent) | Fnorm (rep 1-3) (AF647‐labeled hCD1d [1]; 0.000125 M detergent) | Fnorm (rep 1-3) (AF647‐labeled hCD1d [1]; 0.00025 M detergent) | Fnorm (rep 1-3) (AF647‐labeled hCD1d [1]; 0.0005 M detergent) | Fnorm (rep 1-3) (AF647‐labeled hCD1d [1]; [6]) | binding to hCD1d by ITF (in words) [3] | F-F0/F0 (rep 1-3) ([3]; 3.0518e-8 M detergent) | CMC [5] | CMC ([5]; weight/volume) | further results |
| --- | --- | --- | --- | --- | --- | --- | --- | --- | --- | --- | --- | --- | --- | --- | --- | --- | --- | --- | --- | --- | --- |
| CCCCCCCCCCCC[N+](C)(C)[O-] [LDAO, lauryldimethylamine‐N‐oxide] | 814.692 ‰ and 814.467 ‰ and 814.489 ‰ | 817.057 ‰ and 815.567 ‰ and 813.955 ‰ | 815.153 ‰ and 815.733 ‰ and 813.219 ‰ | 820.838 ‰ and 814.573 ‰ and 816.312 ‰ | 815.87 ‰ and 817.501 ‰ and 814.61 ‰ | 819.746 ‰ and 816.532 ‰ and 815.008 ‰ | 821.408 ‰ and 818.645 ‰ and 816.968 ‰ | 814.412 ‰ and 819.336 ‰ and 814.062 ‰ | 818.471 ‰ and 817.826 ‰ and 814.305 ‰ | 818.754 ‰ and 820.576 ‰ and 816.619 ‰ | 825.871 ‰ and 823.407 ‰ and 821.261 ‰ | 827.8 ‰ and 827.022 ‰ and 819.019 ‰ | 840.896 ‰ and 830.059 ‰ and 833.855 ‰ | 853.04 ‰ and 842.052 ‰ and 840.306 ‰ | 856.938 ‰ and 859.889 ‰ and 860.509 ‰ | 853.851 ‰ and 856.381 ‰ and 852.289 ‰ | observable binding | 0 | 1000 µM | 0.023% | Kd (AF647‐labeled hCD1d [2]; Figure 5B, detergent binding to hCD1d, read-out: MST - Kd (uM) average): 157 µM; Kd (AF647‐labeled hCD1d [2]; detergent with 100 nM AF647‐labeled hCD1d, 25°C, apparent, read-out: K D (MST)): 157 ± 58.6 µM; F-F0/F0 (rep 1-3) ([3]; 1.2207e-7 M detergent): 0.07548 and 0.05543 and 0.06384; F-F0/F0 (rep 1-3) ([3]; 4.8828e-7 M detergent): 0.06847 and 0.06205 and 0.06021; F-F0/F0 (rep 1-3) ([3]; 0.00025 M detergent): 0.1026 and 0.1076 and 0.1826; F-F0/F0 (rep 1-3) [3, 7]: 0.4171 and 0.3604 and 0.4782; Kd ([4]; detergent with 100 nM hCD1d, 25°C, 1X PBS pH 7.4, apparent, read-out: K D (ITF)): > 10000 µM |
| C[C@H](CCC(=O)NCCC[N+](C)(C)CCCS(=O)(=O)[O-])[C@H]1CC[C@H]2[C@@H]3[C@H](O)C[C@@H]4C[C@H](O)CC[C@]4(C)[C@H]3C[C@H](O)[C@]12C [CHAPS, 3‐((3‐cholamidopropyl) dimethylammonio)‐1‐propanesulfonate] | 790.173 ‰ and 791.465 ‰ and 791.791 ‰ | 791.241 ‰ and 791.286 ‰ and 792.264 ‰ | 790.851 ‰ and 791.968 ‰ and 791.334 ‰ | 791.909 ‰ and 789.682 ‰ and 791.374 ‰ | 790.852 ‰ and 792.443 ‰ and 789.72 ‰ | 790.963 ‰ and 791.166 ‰ and 789.816 ‰ | 790.601 ‰ and 790.682 ‰ and 790.374 ‰ | 791.182 ‰ and 790.338 ‰ and 790.7 ‰ | 792.893 ‰ and 791.581 ‰ and 790.149 ‰ | 792.783 ‰ and 794.481 ‰ and 793.14 ‰ | 797.777 ‰ and 796.648 ‰ and 796.885 ‰ | 802.833 ‰ and 802.212 ‰ and 800.436 ‰ | 807.041 ‰ and 807.203 ‰ and 808.474 ‰ | 810.973 ‰ and 810.93 ‰ and 810.716 ‰ | 814.652 ‰ and 812.289 ‰ and 815.372 ‰ | 815.189 ‰ and 817.537 ‰ and 819.368 ‰ | observable binding | 0 | 8000 µM | 0.49% | Kd (AF647‐labeled hCD1d [2]; [8]): < 200 µM; Kd (AF647‐labeled hCD1d [2]; MST - Kd (uM) average, Figure 5B, detergent binding to hCD1d): 90.4 µM; F-F0/F0 (rep 1-3) [3, 7]: 0.1904 and 0.2276 and 0.116; Kd ([3]; read-out: K D (ITF), detergent with 100 nM hCD1d, 25°C, 1X PBS pH 7.4, apparent): < 400 µM; Kd [4, 9]: 269 µM |
| CCCCCCCCCCCCOS(=O)(=O)O [SDS, sodium dodecyl sulfate] | 794.561 ‰ and 796.538 ‰ and 787.226 ‰ | 793.573 ‰ and 796.65 ‰ and 788.808 ‰ | 795.629 ‰ and 795.536 ‰ and 789.052 ‰ | 792.166 ‰ and 793.398 ‰ and 784.145 ‰ | 790.042 ‰ and 793.566 ‰ and 789.803 ‰ | 792.907 ‰ and 794.378 ‰ and 788.273 ‰ | 792.77 ‰ and 792.711 ‰ and 788.545 ‰ | 794.169 ‰ and 793.199 ‰ and 789.062 ‰ | 793.805 ‰ and 798.209 ‰ and 788.93 ‰ | 795.098 ‰ and 796.977 ‰ and 790.788 ‰ | 796.19 ‰ and 799.152 ‰ and 792.387 ‰ | 800.38 ‰ and 802.553 ‰ and 795.217 ‰ | 801.158 ‰ and 800.337 ‰ and 800.706 ‰ | 801.719 ‰ and 804.302 ‰ and 803.561 ‰ | 816.347 ‰ and 820.909 ‰ and 814.082 ‰ | 825.168 ‰ and 825.899 ‰ and 822.956 ‰ |  | 0 | 1990 µM | 0.057% | binding to hCD1d by MST (in words) (AF647‐labeled hCD1d [1]): observable binding; Kd (AF647‐labeled hCD1d [2]; [8]): > 10000 µM; Kd (AF647‐labeled hCD1d [2]; K D, detergent class summary, approximate, collectively from ITF and MST): 10 to 500 µM; Kd [4, 9]: 35.5 µM; Kd ([4]; K D (ITF), detergent with 100 nM hCD1d, 25°C, 1X PBS pH 7.4, apparent): 35.5 ± 22.6 µM |
